Measurements taken from paper PMC2639596, “Antimicrobial peptides effectively kill a broad spectrum of Listeria monocytogenes and Staphylococcus aureus strains independently of origin, sub-type, or virulence factor expression” (BMC Microbiology, 2008).

Key:
[1] = tested on: L. monocytogenes and S. aureus; assay: Minimum bactericidal concentration (MBC), plating from MIC wells; type: cell-based, Listeria monocytogenes, Staphylococcus aureus; details: 99.9% reduction of initial inoculum; 10 μl from wells with no visible growth plated on BHI agar
Procedure: (§1) The strain collection was tested for sensitivity to protamine, plectasin, novicidin, and novispirin G10 by determining their minimal inhibitory concentration (MIC) using a microbroth dilution method. Colonies from a BHI agar plate incubated overnight were suspended in MHB pH 7.4 to a turbidity of 0.11–0.12 at 546 nm (approx. 1.0 × 10^8 CFU/ml) and diluted in MHB to a concentration of 5.0 × 10^5 CFU/ml. 90 μl of bacterial suspension was incubated with 10 μl of peptide solution in polypropylene 96-well plates (Nunc, 442587) for 18–24 h at 37°C. The peptide solutions were made fresh on the day of assay and diluted two-fold. The range of concentrations assayed were 0.031–32 μg/ml for novicidin, 0.125–128 μg/ml for protamine and novispirin G10, and 0.25–256 μg/ml for plectasin. MIC was the lowest peptide concentration at which visual growth was inhibited. The minimum bactericidal concentration (MBC) values were determined by plating l0 μl samples from wells with no visible growth onto BHI agar plates. MBC was the lowest concentration of each peptide of which 99.9% reduction of the initial inoculum was observed.

Staphylococcus aureus = assay: MIC of host defense peptides in liquid medium (microbroth dilution); type: cell-based; details: 37°C; for MIC: 18–24 h
Procedure: (§2) Experiments were carried out with a collection of 25 Listeria monocytogenes strains (Table 1) and 16 Staphylococcus aureus strains (Table 2) representing different lineages and serotypes (L. monocytogenes), spa types (S. aureus), and origins (food processing environment, food products, and human clinical isolates). Six L. monocytogenes strains were mutants of the EGD strain and were mutated in genes known to be involved in stress tolerance. The S. aureus collection comprised two deletion mutants, strains Sa113/ΔmprF [8] and Sa113/ΔdltA [7], known to be more sensitive to host defense peptides. Two of the S. aureus strains could not immediately be assigned to an existing spa type and we are in the process of acquiring the additional information that is needed to assign a new spa type to them. The strains were obtained from The National Institute of Aquatic Resources and The National Food Institute, Technical University of Denmark, Faculty of Life Sciences, University of Copenhagen, Denmark, Statens Serum Institut, Denmark, University of Würzburg, Germany and Campden Food and Drink Association, United Kingdom. Stock cultures were stored at -80°C in 4% (w/V) glycerol, 0.5% (w/V) glucose, and 2.0% (w/V) skimmed milk powder. The bacteria were grown in Brain Heart Infusion (BHI) broth (Oxoid, CM0225), Tryptone Soy Broth (TSB) (Oxoid, CM129), and cation-adjusted Mueller-Hinton II Broth (MHB) (Becton Dickinson, 212322) adjusted to pH 7.4. To avoid unspecific binding of host defense peptides to plastic ware and agar, all MIC determinations were carried out using polypropylene plastic ware and radial diffusion assays were carried out in MHB supplemented with 1% agarose (Invitrogen, 15510-027) as gelling agent.
(§3) Protamine was purchased from Sigma (P4020-5G). Plectasin, novicidin, and novispirin G10 were supplied by Novozymes A/S. Recombinant HBD-3 was purchased from PeproTech (300-52).
as §1

Listeria monocytogenes = assay: as above; type: cell-based; details: 37°C; for MIC: 18–24 h
Procedure: as §2, §3, §1

novicidin
1 µg/mL: MIC (Staphylococcus aureus; strain ΔmprF (Sa113 mprF del), MHB pH 7.4, 5.0 × 10^5 CFU/ml)
2 to 8 µg/mL: MIC values against L. monocytogenes (range over strains) (Listeria monocytogenes; range over 25 strains, MHB pH 7.4, 18–24 h)
12 µg/mL: MIC (Staphylococcus aureus; strain B31369, MHB pH 7.4, 5.0 × 10^5 CFU/ml)
0.5 µg/mL: MIC (Staphylococcus aureus; strain ΔdltA (Sa113 dltA ins), MHB pH 7.4, 5.0 × 10^5 CFU/ml)
2 µg/mL: MIC (Listeria monocytogenes; strain 2307 (EGD resD del), MHB pH 7.4, 5.0 × 10^5 CFU/ml) | MIC (Listeria monocytogenes; strain LO28 (wildtype), MHB pH 7.4, 5.0 × 10^5 CFU/ml) | MIC (Listeria monocytogenes; strain N53-1, MHB pH 7.4, 5.0 × 10^5 CFU/ml)
8 µg/mL: MIC (Staphylococcus aureus; strain 8325-4 (wildtype), MHB pH 7.4, 5.0 × 10^5 CFU/ml) | MIC (Staphylococcus aureus; strain 14943, MHB pH 7.4, 5.0 × 10^5 CFU/ml) | MIC (Staphylococcus aureus; strain 15033, MHB pH 7.4, 5.0 × 10^5 CFU/ml) | MIC (Staphylococcus aureus; strain J15033, MHB pH 7.4, 5.0 × 10^5 CFU/ml) | MIC (Listeria monocytogenes; strain 4666, MHB pH 7.4, 5.0 × 10^5 CFU/ml) | MIC (Listeria monocytogenes; strain 7291, MHB pH 7.4, 5.0 × 10^5 CFU/ml) | MIC (Listeria monocytogenes; strain V518a, MHB pH 7.4, 5.0 × 10^5 CFU/ml)
identical to the MICs: minimum bactericidal concentrations (MBC) [1]
4 µg/mL: MIC (Staphylococcus aureus; strain 2148-jvi, MHB pH 7.4, 5.0 × 10^5 CFU/ml) | MIC (Staphylococcus aureus; strain B29997, MHB pH 7.4, 5.0 × 10^5 CFU/ml) | MIC (Staphylococcus aureus; strain K3-B2, MHB pH 7.4, 5.0 × 10^5 CFU/ml) | MIC (Staphylococcus aureus; strain KES 439, MHB pH 7.4, 5.0 × 10^5 CFU/ml) | MIC (Staphylococcus aureus; strain KES 626, MHB pH 7.4, 5.0 × 10^5 CFU/ml) | MIC (Staphylococcus aureus; strain KES 735, MHB pH 7.4, 5.0 × 10^5 CFU/ml) | MIC (Staphylococcus aureus; strain KES 855, MHB pH 7.4, 5.0 × 10^5 CFU/ml) | MIC (Listeria monocytogenes; strain 2275 (EGD dps del), MHB pH 7.4, 5.0 × 10^5 CFU/ml) | MIC (Listeria monocytogenes; strain 2315 (EGD sigB del), MHB pH 7.4, 5.0 × 10^5 CFU/ml) | MIC (Listeria monocytogenes; strain 2317 (EGD prfA del), MHB pH 7.4, 5.0 × 10^5 CFU/ml) | MIC (Listeria monocytogenes; strain 2374 (EGD perR ins), MHB pH 7.4, 5.0 × 10^5 CFU/ml) | MIC (Listeria monocytogenes; strain 2375 (EGD perR del), MHB pH 7.4, 5.0 × 10^5 CFU/ml) | MIC (Listeria monocytogenes; strain 4239, MHB pH 7.4, 5.0 × 10^5 CFU/ml) | MIC (Listeria monocytogenes; strain 4446, MHB pH 7.4, 5.0 × 10^5 CFU/ml) | MIC (Listeria monocytogenes; strain 4459, MHB pH 7.4, 5.0 × 10^5 CFU/ml) | MIC (Listeria monocytogenes; strain 6895, MHB pH 7.4, 5.0 × 10^5 CFU/ml) | MIC (Listeria monocytogenes; strain 7418, MHB pH 7.4, 5.0 × 10^5 CFU/ml) | MIC (Listeria monocytogenes; strain EGD (wildtype), MHB pH 7.4, 5.0 × 10^5 CFU/ml) | MIC (Listeria monocytogenes; strain H13-1, MHB pH 7.4, 5.0 × 10^5 CFU/ml) | MIC (Listeria monocytogenes; strain La22, MHB pH 7.4, 5.0 × 10^5 CFU/ml) | MIC (Listeria monocytogenes; strain La111, MHB pH 7.4, 5.0 × 10^5 CFU/ml) | MIC (Listeria monocytogenes; strain M103-1, MHB pH 7.4, 5.0 × 10^5 CFU/ml) | MIC (Listeria monocytogenes; strain No40-1, MHB pH 7.4, 5.0 × 10^5 CFU/ml) | MIC (Listeria monocytogenes; strain O57, MHB pH 7.4, 5.0 × 10^5 CFU/ml) | MIC (Listeria monocytogenes; strain R479a, MHB pH 7.4, 5.0 × 10^5 CFU/ml) | MIC (Listeria monocytogenes; strain Scott A, MHB pH 7.4, 5.0 × 10^5 CFU/ml)
6 µg/mL: MIC (Staphylococcus aureus; strain 796, MHB pH 7.4, 5.0 × 10^5 CFU/ml) | MIC (Staphylococcus aureus; strain Sa113 (wildtype), MHB pH 7.4, 5.0 × 10^5 CFU/ml)
0.5 to 12 µg/mL: MIC values against S. aureus (range over strains) (Staphylococcus aureus; range over 16 strains, MHB pH 7.4, 18–24 h)
